Data from patent US20190015467A1, “AGENT FOR PREVENTING OR AMELIORATING UNEVEN SKIN TONE” (KAO CORPORATION, priority 2017, published 2019).

Experiments:
[1] = test system: keratinocytes (neonatal foreskin); assay: Autophagy-activating action: LC3-II protein in keratinocytes by Western blotting; assay type: cell-based, human; settings: 48 hours culture, same toosendanin concentration in both media, control solvent (ethanol)
[2] = test system: skin at the elbow site of AA; assay: Organ culture of AA elbow skin with Torin 1: Fontana-Masson melanin staining and image analysis; assay type: cell-based, human; settings: Torin 1 1 μM, tissue culture 5 days, vs absence of Torin 1; n=4, paired t-test p<0.05
Description: Meanwhile, the sections were subjected to melanin staining (Melanin Stain), separately. The sections were immersed in a 4% PFA/PBS solution for 10 minutes to be fixed. The fixed sections were washed with distilled water (DDW) for 5 minutes 3 times in total, and thereafter a Fontana-ammonia silver solution (Muto) was added dropwise thereto, followed by treatment at room temperature for 30 minutes. Then, the sections were washed with DDW for 5 minutes 3 times in total, and a Kernechtrot solution (Muto) was added dropwise thereto, followed by treatment for 3 minutes, for nuclear staining. The excess staining solution was washed away with DDW, followed by dehydration, clearing, and mounting with Malinol (Muto).
From skin at the elbow site of four AA women, skin tissues were collected through punch biopsy by a dermatologist. The collected tissues were halved with a scalpel, and the tissues were cultured for 5 days in the presence or absence of mTORC1 inhibitor, Torin 1 (Cayman Chemical, #10997) to a final concentration of 1 μM. […] Further, melanin was visualized by Fontana-Masson staining, and the epidermal stratum corneum thickness and the melanin deposition area were calculated using an image analysis software (Image J).

[3] = test system: skin at the elbow site of AA; assay: Organ culture of AA elbow skin with Torin 1: immunohistochemical analyses of autophagy-related, keratinization and proliferation markers; assay type: cell-based, human; settings: Torin 1 1 μM, tissue culture 5 days
Description: (§1) The technique of immunohistochemical analyses will be described. The sections were immersed in acetone or a 4% PFA/PBS solution for 10 minutes to be fixed. The fixed sections were washed with PBS-T (0.05% Tween-20/PBS) for 5 minutes 3 times in total and were blocked with a 1% BSA/PBS solution for 30 minutes. Subsequently, after the sections were subjected to overnight treatment at 4° C. with a primary antibody and were washed with PBS for 5 minutes 3 times in total, a secondary antibody (Jackson ImmunoResearch, 1:100 or 1:200) fluorescent labeled with FITC, RR-X, or Cy3 was added dropwise thereto, followed by treatment at 37° C. for 30 minutes. Thereafter, the sections were washed with PBS-T for 5 minutes 3 times in total and with PBS for 5 minutes once, mounted by aqueous encapsulant containing a nuclear-staining agent (H-1200: Vector Laboratories). Refer to Table 1 for the type of primary antibody, the tissue fixation conditions, and the concentration used.
The produced preparations were subjected to tissue observation and photographing using an inverted microscope (AxioVision, manufactured by Carl Zeiss Vision International GmbH) or a confocal laser microscope (LSM710, manufactured by Carl Zeiss Vision International GmbH). The captured images were analyzed using an image analysis software, and the expression levels of Pmel17, which is a marker of melanocyte growth and activation, cell proliferation marker Ki67, Filaggrin (FLG), Loricrin (LOR), and Transglutaminase 1 (TGM1), which are keratinization-related factors, were quantitated. Further, using RGB Profile Plot, which is an image analysis software, the fluorescence intensity distribution in the skin depth direction was investigated. The image analysis software used was “Image J” (available from imagej.nih.gov/ij/).
From skin at the elbow site of four AA women, skin tissues were collected through punch biopsy by a dermatologist. The collected tissues were halved with a scalpel, and the tissues were cultured for 5 days in the presence or absence of mTORC1 inhibitor, Torin 1 (Cayman Chemical, #10997) to a final concentration of 1 μM. In the tissue culture, a culture medium obtained by adding 10 v/v % Fetal Bovine Serum (FBS) and antibiotics (Antibiotic-Antimycotic) to Advanced-DMEM was used (both were from Life Technologies). After the completion of culture, frozen samples were rapidly produced, and immunohistochemical analyses were performed by the same procedure as in Example 1 (2) using their sections. Refer to Table 3 for the type of primary antibody, the tissue fixation conditions, and the concentration used. Further, melanin was visualized by Fontana-Masson staining, and the epidermal stratum corneum thickness and the melanin deposition area were calculated using an image analysis software (Image J).

mTORC1 = assay: Organ culture of AA elbow skin with Torin 1: immunohistochemical analysis of mTOR phosphorylation; assay type: cell-based, human; settings: Torin 1 1 μM, tissue culture 5 days; paired t-test p<0.05
Description: as §1, with “Thereafter, the sections were washed with PBS-T for 5 minutes 3 times in total and with PBS for 5 minutes once, mounted by aqueous encapsulant containing a nuclear-staining agent (H-1200: Vector Laboratories). Refer to Table 1 for the type of primary antibody, the tissue fixation conditions, and the concentration used.” left out
The produced preparations were subjected to tissue observation and photographing using an inverted microscope (AxioVision, manufactured by Carl Zeiss Vision International GmbH) or a confocal laser microscope (LSM710, manufactured by Carl Zeiss Vision International GmbH). The captured images were analyzed using an image analysis software, and the expression levels of Pmel17, which is a marker of melanocyte growth and activation, cell proliferation marker Ki67, Filaggrin (FLG), Loricrin (LOR), and Transglutaminase 1 (TGM1), which are keratinization-related factors, were quantitated. Further, using RGB Profile Plot, which is an image analysis software, the fluorescence intensity distribution in the skin depth direction was investigated. […]

[4] = test system: cultured keratinocytes derived from human neonatal foreskin; assay: Gene expression by quantitative PCR in Torin 1-treated cultured keratinocytes; assay type: cell-based; settings: 24 hours culture, ANOVA, Dunnett test p<0.05
Description: Torin 1 was added to cultured keratinocytes derived from human neonatal foreskin, and the mixture was cultured for 24 hours in an environment of 37° C. and 5% CO2. For the cell culture, a culture medium obtained by adding a predetermined growth additive (Humedia KG2, manufactured by KURABO INDUSTRIES LTD.) to Epilife culture medium (Life Technologies) was used. RNA was extracted from the keratinocytes, and the gene expression was analyzed by quantitative PCR using a Taqman probe (Life Technologies).

Structure (SMILES)	LC3-II protein in the cells [1]	amount of melanin (melanin deposition area) [2]	epidermal stratum corneum thickness [2]	localization of ATG5-ATG12 in the epidermis [3]	localization of ATG16L1 in the epidermis [3]	distribution of Filaggrin (FLG) in the epidermis ([3]; vs untreated skin)	distribution of Loricrin (LOR) in the epidermis ([3]; vs untreated skin)	distribution of Transglutaminase 1 (TGM1) in the epidermis ([3]; vs untreated skin)	proliferating cells (number of Ki67 positive cells) ([3]; vs untreated skin)	LC3 protein ([3]; paired t-test p<0.05)	p62 protein aggregation ([3]; paired t-test p<0.05)	phosphorylation of mTOR (p-mTOR to mTOR) (mTORC1)	gene expression of Involucrin (IVL) ([4]; depending on the dose)	gene expression of TGM1 ([4]; depending on the dose)	gene expression of SKP2 [4]
CC(=O)O[C@@H]1C[C@H](O)[C@@]23CO[C@@H](O)[C@]1(C)[C@@H]2C[C@@H](O)[C@]1(C)[C@@H]3C(=O)[C@H](OC(C)=O)[C@@]2(C)[C@H](c3ccoc3)C[C@H]3O[C@]321 [toosendanin]	LC3-II protein-increasing actions	–	–	–	–	–	–	–	–	–	–	–	–	–	–
CCC(=O)N1CCN(c2ccc(-n3c(=O)ccc4cnc5ccc(-c6cnc7ccccc7c6)cc5c43)cc2C(F)(F)F)CC1 [Torin 1]	–	statistically significantly decreased	statistically significantly decreased	the localization was normalized	the localization was normalized	restored to be localized by the epidermal granular layer	restored to be localized by the epidermal granular layer	restored to be localized by the epidermal granular layer	a decrease in proliferating cells was confirmed	increased	decreased	inhibition of phosphorylation of mTOR was observed	statistically significantly increased	statistically significantly increased	statistically significantly reducing
